Usually IC50 stands for the concentration needed to halve the response being measured.

For experiment [1], the target named is Platelet-derived growth factor receptor beta (Homo sapiens, UniProt P09619). The experiment can be described thus: Inhibition of PDGFR-beta (unknown origin) by ELISA. A general note: ELISA stands for enzyme-linked immunosorbent assay.
Experiment [2] concerns the target Fibroblast growth factor receptor 1 (Homo sapiens, UniProt P11362). The experiment can be described thus: Inhibition of FGFR-1 (unknown origin) by ELISA.
In another experiment the test system is HepG2. The experiment can be described thus: Antiproliferative activity against human HepG2 cells after 48 hrs by SRB assay. In kind it is functional, cell-based. As to conditions: HepG2, 48 h. (The SRB assay estimates cell density from bound dye.)
The target of experiment [3] is Vascular endothelial growth factor receptor 2 (Homo sapiens, UniProt P35968).
Chain of Vascular endothelial growth factor receptor 2 (P35968 whole entry): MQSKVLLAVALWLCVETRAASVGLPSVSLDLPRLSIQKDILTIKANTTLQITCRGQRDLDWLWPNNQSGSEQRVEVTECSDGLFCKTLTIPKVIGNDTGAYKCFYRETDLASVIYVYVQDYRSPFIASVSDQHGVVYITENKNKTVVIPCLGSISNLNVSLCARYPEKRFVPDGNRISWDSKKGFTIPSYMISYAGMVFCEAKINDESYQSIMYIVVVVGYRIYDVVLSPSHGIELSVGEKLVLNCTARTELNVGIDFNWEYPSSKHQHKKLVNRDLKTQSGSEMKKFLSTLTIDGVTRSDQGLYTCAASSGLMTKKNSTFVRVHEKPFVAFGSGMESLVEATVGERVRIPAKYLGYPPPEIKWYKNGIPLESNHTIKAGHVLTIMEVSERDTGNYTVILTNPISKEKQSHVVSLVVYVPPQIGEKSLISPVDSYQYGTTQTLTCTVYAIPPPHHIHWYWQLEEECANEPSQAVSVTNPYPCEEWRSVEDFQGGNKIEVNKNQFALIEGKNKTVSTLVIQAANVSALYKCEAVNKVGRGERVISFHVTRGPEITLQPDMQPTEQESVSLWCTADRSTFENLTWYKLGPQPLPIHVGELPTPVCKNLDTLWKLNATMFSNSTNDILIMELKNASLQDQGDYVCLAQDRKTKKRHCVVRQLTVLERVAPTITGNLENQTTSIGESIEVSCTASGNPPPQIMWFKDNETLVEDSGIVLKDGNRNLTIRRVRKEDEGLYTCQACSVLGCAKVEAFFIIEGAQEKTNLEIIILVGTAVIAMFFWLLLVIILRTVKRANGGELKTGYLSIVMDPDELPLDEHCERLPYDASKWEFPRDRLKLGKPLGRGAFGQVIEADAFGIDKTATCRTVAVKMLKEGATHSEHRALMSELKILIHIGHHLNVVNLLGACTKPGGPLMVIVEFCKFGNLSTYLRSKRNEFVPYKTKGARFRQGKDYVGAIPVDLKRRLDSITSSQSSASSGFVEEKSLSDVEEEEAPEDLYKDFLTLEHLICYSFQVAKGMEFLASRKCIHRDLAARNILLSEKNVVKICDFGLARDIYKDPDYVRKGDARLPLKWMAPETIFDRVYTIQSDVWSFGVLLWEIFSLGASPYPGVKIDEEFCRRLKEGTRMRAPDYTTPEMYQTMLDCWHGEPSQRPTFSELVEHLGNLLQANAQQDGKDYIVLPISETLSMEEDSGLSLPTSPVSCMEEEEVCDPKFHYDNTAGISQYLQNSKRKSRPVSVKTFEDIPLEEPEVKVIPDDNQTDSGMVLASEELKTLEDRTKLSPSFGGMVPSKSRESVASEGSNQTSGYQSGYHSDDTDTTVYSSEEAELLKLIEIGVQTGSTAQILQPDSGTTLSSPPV
Description: Inhibition of VEGFR-2 (unknown origin) using biotinylated poly-GluTyr (4:1) as substrate after 5 mins by ELISA
A further experiment deals with A549. The experiment can be described thus: cells. As to conditions: Homo sapiens, A549, 48 h.
The subject of a further experiment is MCF7. The experiment can be described thus: cells. As to conditions: Homo sapiens, MCF7, 48 h.
Experiment [4] can be described thus: Cytotoxicity against human HFB4 cells after 48 hrs by SRB assay. It is filed as cell-based.
The test system of a further experiment is A498. The experiment can be described thus: Antiproliferative activity against human A498 cells after 48 hrs by SRB assay. It is filed as functional, cell-based. As to conditions: A498, 48 h.

Chain of Fibroblast growth factor receptor 1 (P11362 whole entry): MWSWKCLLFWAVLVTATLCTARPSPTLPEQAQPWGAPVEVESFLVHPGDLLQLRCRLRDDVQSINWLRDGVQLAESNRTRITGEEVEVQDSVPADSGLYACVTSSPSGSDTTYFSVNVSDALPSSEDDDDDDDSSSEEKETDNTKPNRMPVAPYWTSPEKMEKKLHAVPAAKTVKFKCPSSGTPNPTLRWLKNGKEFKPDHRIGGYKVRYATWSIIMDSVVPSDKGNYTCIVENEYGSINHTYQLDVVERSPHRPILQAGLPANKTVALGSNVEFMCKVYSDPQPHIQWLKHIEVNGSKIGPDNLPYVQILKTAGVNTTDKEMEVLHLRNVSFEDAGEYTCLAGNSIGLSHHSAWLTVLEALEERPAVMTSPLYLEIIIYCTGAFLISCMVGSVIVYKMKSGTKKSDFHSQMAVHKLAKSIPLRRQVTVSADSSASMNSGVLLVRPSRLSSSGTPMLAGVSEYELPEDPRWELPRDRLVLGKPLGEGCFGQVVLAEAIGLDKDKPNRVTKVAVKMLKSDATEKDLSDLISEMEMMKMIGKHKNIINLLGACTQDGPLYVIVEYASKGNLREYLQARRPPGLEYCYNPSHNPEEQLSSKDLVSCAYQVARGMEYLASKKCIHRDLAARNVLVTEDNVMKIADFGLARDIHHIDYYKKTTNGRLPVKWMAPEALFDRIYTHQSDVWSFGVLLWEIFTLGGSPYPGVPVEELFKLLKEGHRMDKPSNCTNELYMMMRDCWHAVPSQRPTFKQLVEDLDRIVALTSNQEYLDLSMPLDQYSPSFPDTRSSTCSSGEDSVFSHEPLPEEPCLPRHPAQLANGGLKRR
Chain of Platelet-derived growth factor receptor beta (P09619 whole entry): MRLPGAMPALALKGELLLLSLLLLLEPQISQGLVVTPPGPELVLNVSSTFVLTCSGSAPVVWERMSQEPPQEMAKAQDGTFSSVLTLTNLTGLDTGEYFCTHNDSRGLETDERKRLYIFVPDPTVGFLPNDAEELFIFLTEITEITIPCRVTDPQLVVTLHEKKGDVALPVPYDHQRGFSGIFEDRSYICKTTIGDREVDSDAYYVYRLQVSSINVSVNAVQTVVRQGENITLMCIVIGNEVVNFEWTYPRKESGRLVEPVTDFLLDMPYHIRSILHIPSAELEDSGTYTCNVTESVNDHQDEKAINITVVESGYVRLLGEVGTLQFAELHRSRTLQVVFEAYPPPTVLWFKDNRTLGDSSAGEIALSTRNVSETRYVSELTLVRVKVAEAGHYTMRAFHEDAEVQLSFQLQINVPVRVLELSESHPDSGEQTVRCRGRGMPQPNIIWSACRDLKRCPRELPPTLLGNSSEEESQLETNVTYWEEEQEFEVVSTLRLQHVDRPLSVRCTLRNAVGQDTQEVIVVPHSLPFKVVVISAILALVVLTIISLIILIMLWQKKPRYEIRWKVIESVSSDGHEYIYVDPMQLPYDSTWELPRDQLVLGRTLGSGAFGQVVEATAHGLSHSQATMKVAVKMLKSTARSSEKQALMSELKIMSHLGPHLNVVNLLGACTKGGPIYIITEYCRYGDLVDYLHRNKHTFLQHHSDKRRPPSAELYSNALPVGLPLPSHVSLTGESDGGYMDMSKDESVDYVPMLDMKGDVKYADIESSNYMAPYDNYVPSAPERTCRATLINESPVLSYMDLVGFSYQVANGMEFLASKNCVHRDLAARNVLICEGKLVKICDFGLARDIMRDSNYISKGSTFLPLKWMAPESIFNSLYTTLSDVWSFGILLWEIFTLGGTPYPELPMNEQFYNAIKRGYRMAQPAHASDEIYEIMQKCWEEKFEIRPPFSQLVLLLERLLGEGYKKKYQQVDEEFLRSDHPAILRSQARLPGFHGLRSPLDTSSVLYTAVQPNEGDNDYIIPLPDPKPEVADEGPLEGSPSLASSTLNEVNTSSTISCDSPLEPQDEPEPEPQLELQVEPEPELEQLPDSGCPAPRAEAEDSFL
Description for A549: Antiproliferative activity against human A549 cells after 48 hrs by SRB assay
Description for MCF7: Antiproliferative activity against human MCF7 cells after 48 hrs by SRB assay

For the compound `COc1ccc2c(c1)/C(=N/NC(=O)c1ccc(NC(=O)Nc3ccc(Cl)c(C(F)(F)F)c3)cc1)C(=O)N2`, the IC50 is 100 nM in experiment [1] and 230 nM in experiment [2].

For the compound `COc1cccc(NC(=O)Nc2ccc(C(=O)N/N=C3\C(=O)Nc4ccc(OC)cc43)cc2)c1`, the IC50 in experiment [1] was 110 nM; in the experiment with HepG2, 2930 nM; in experiment [3], 270 nM; in the experiment with A549, more than 100000 nM; in the experiment on MCF7, 27000 nM; in experiment [4] it was 45800 nM. Further, the IC50 is 780 nM with A498 (read-out: IC50) and 300 nM in experiment [2].

In the case of `O=C(Nc1ccc(C(=O)N/N=C2\C(=O)Nc3ccc(Br)cc32)cc1)Nc1ccc(Cl)c(C(F)(F)F)c1`, the IC50 turned out to be 450 nM in experiment [1] and 310 nM in experiment [2].

For `COc1ccc(C(=O)Nc2ccc(C(=O)N/N=C3\C(=O)Nc4ccc(Br)cc43)cc2)cc1`, the IC50 in experiment [1] came to 230 nM; in experiment [2] it was 380 nM.

On to `COc1ccc(C(=O)Nc2ccc(C(=O)N/N=C3\C(=O)Nc4ccc(OC)cc43)cc2)cc1`, for which the IC50 in experiment [1] was 90 nM; in experiment [2], 460 nM.

Take `COc1ccc2c(c1)/C(=N/NC(=O)c1ccc(NC(=O)c3ccc(Cl)cc3)cc1)C(=O)N2`: the IC50 amounted to 2010 nM in experiment [1] and 390 nM in experiment [2].

For `COc1cccc(NC(=O)Nc2ccc(C(=O)N/N=C3\C(=O)Nc4ccc(Br)cc43)cc2)c1`, the values for the IC50 in experiment [1] and in experiment [2] were 1590 nM and 480 nM, respectively.

Turning to `COc1ccc2c(c1)/C(=N/NC(=O)c1ccc(NC(=O)Nc3ccc(Cl)cc3)cc1)C(=O)N2`, the IC50 worked out at 1820 nM in experiment [1] and 390 nM in experiment [2].

Take `COc1ccc(NC(=O)Nc2ccc(C(=O)N/N=C3\C(=O)Nc4ccc(OC)cc43)cc2)cc1`: the IC50 in experiment [1] is 330 nM; in experiment [2] it was 170 nM.

As for `COc1cccc(NC(=O)Nc2ccc(C(=O)N/N=C3\C(=O)Nc4ccc(Cl)cc43)cc2)c1`, the figures for the IC50 in experiment [1] and in experiment [2] were 1290 nM and 420 nM, respectively.

With `COc1ccc(NC(=O)Nc2ccc(C(=O)N/N=C3\C(=O)Nc4ccc(Br)cc43)cc2)cc1`, the values for the IC50 in experiment [1] and in experiment [2] were 3790 nM and 610 nM, respectively.

For `COc1ccc2c(c1)/C(=N/NC(=O)c1ccc(NC(=O)Nc3ccccc3)cc1)C(=O)N2`, the IC50 came to 3640 nM in experiment [1] and 280 nM in experiment [2].

For `COc1cccc2c1C(=O)c1c(O)c3c(c(O)c1C2=O)C[C@@](O)(C(=O)CO)C[C@@H]3O[C@H]1C[C@H](N)[C@H](O)[C@H](C)O1` [DOXORUBICIN], the IC50 in the experiment on HepG2 was determined as 4100 nM; in the experiment on A549 it was 4360 nM; in experiment [4], 80300 nM; with A498, 1100 nM.

In the case of `CNC(=O)c1cc(Oc2ccc(NC(=O)Nc3ccc(Cl)c(C(F)(F)F)c3)cc2)ccn1` [SORAFENIB], the IC50 with HepG2 came to 5230 nM; in the experiment with A549, 6110 nM; in the experiment on MCF7, 4270 nM; in experiment [4], 85000 nM.

These data come from ChEMBL document CHEMBL4330065, “Type IIA - Type IIB protein tyrosine kinase inhibitors hybridization as an efficient approach for potent multikinase inhibitor development: Design, synthesis, anti-proliferative activity, multikinase inhibitory activity and molecular modeling of novel indolinone-based ureides and amides” (Eur J Med Chem, 2019).
